# Test results taken from PubChem BioAssay (NCI).
#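 Interpolation was linear, between the two tested concentrations surrounding the appropriate level; five concentrations were tested over 48 hours in 96-well plates. At the GI50, growth is halved. TGI is the concentration that stops growth completely.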
# Tests used:
# Assay in all cases: growth of human tumour cells (NCI), 48 h
# HCC-2998 colon = tested on: HCC-2998 colon
# HCT-116 colon = tested on: HCT-116 colon
# BT-549 breast = tested on: BT-549 breast
# NCI-H522 lung = tested on: NCI-H522 lung
# HCT-15 colon = tested on: HCT-15 colon
# HT29 colon = tested on: HT29 colon
# MOLT-4 leukemia = tested on: MOLT-4 leukemia
# HOP-62 NSCLC = tested on: HOP-62 NSCLC
# OVCAR-8 ovarian = tested on: OVCAR-8 ovarian
# IGROV1 ovarian = tested on: IGROV1 ovarian
# NCI-H460 lung = tested on: NCI-H460 lung
# SNB-19 CNS = tested on: SNB-19 CNS
# OVCAR-5 ovarian = tested on: OVCAR-5 ovarian
# SW-620 colon = tested on: SW-620 colon
# DU-145 prostate = tested on: DU-145 prostate
# OVCAR-4 ovarian = tested on: OVCAR-4 ovarian
# LOX IMVI melanoma = tested on: LOX IMVI melanoma
# A549 NSCLC = tested on: A549 NSCLC
# COLO 205 colon = tested on: COLO 205 colon
# SK-MEL-5 melanoma = tested on: SK-MEL-5 melanoma
# OVCAR-3 ovarian = tested on: OVCAR-3 ovarian
# HL-60(TB) leukemia = tested on: HL-60(TB) leukemia
# M14 melanoma = tested on: M14 melanoma
# CCRF-CEM leukemia = tested on: CCRF-CEM leukemia
# PC-3 prostate = tested on: PC-3 prostate
# U251 CNS = tested on: U251 CNS
# NCI-H226 lung = tested on: NCI-H226 lung
# NCI/ADR-RES ovarian = tested on: NCI/ADR-RES ovarian
# TK-10 renal = tested on: TK-10 renal
# MALME-3M melanoma = tested on: MALME-3M melanoma
# NCI-H23 lung = tested on: NCI-H23 lung
# SN12C renal = tested on: SN12C renal
# K-562 leukemia = tested on: K-562 leukemia
# UO-31 renal = tested on: UO-31 renal
# HS 578T breast = tested on: HS 578T breast
# A498 renal = tested on: A498 renal
# T-47D breast = tested on: T-47D breast
# EKVX NSCLC = tested on: EKVX NSCLC
# SK-MEL-2 melanoma = tested on: SK-MEL-2 melanoma
# MDA-MB-435 = tested on: MDA-MB-435
# RPMI-8226 leukemia = tested on: RPMI-8226 leukemia
# SF-539 CNS = tested on: SF-539 CNS
# CAKI-1 renal = tested on: CAKI-1 renal
# SK-MEL-28 melanoma = tested on: SK-MEL-28 melanoma
# SF-295 CNS = tested on: SF-295 CNS
# ACHN renal = tested on: ACHN renal
# UACC-62 melanoma = tested on: UACC-62 melanoma
# SK-OV-3 ovarian = tested on: SK-OV-3 ovarian
# 786-0 renal = tested on: 786-0 renal
# SNB-75 CNS = tested on: SNB-75 CNS
# SR leukemia = tested on: SR leukemia
# MDA-MB-231 breast = tested on: MDA-MB-231 breast
# MCF7 breast = tested on: MCF7 breast
# SF-268 CNS = tested on: SF-268 CNS
# KM12 colon = tested on: KM12 colon
# RXF 393 renal = tested on: RXF 393 renal
# UACC-257 melanoma = tested on: UACC-257 melanoma
# HOP-92 NSCLC = tested on: HOP-92 NSCLC
smiles,measurement,setting,value
O=C(c1cccs1)c1c(C(F)(F)F)n([O-])c2ccc(Cl)cc2[n+]1=O,GI50,HCC-2998 colon,735 nM
same,TGI,HCC-2998 colon,1430 nM
same,GI50,HCT-116 colon,46.5 nM
same,TGI,HCT-116 colon,723 nM
same,GI50,BT-549 breast,289 nM
same,TGI,BT-549 breast,655 nM
same,GI50,NCI-H522 lung,406 nM
same,TGI,NCI-H522 lung,6070 nM
same,GI50,HCT-15 colon,109 nM
same,TGI,HCT-15 colon,359 nM
same,GI50,HT29 colon,1290 nM
same,TGI,HT29 colon,> 50000 nM
same,GI50,MOLT-4 leukemia,28.9 nM
same,TGI,MOLT-4 leukemia,340 nM
same,GI50,HOP-62 NSCLC,64.9 nM
same,TGI,HOP-62 NSCLC,146 nM
same,GI50,OVCAR-8 ovarian,1260 nM
same,TGI,OVCAR-8 ovarian,> 20900 nM
same,GI50,IGROV1 ovarian,56.3 nM
same,TGI,IGROV1 ovarian,1650 nM
same,GI50,NCI-H460 lung,359 nM
same,TGI,NCI-H460 lung,> 24900 nM
same,GI50,SNB-19 CNS,1210 nM
same,TGI,SNB-19 CNS,> 14800 nM
same,GI50,OVCAR-5 ovarian,2020 nM
same,TGI,OVCAR-5 ovarian,9680 nM
same,GI50,SW-620 colon,248 nM
same,TGI,SW-620 colon,4680 nM
same,GI50,DU-145 prostate,311 nM
same,TGI,DU-145 prostate,547 nM
same,GI50,OVCAR-4 ovarian,2610 nM
same,TGI,OVCAR-4 ovarian,> 50000 nM
same,GI50,LOX IMVI melanoma,65.3 nM
same,TGI,LOX IMVI melanoma,131 nM
same,GI50,A549 NSCLC,168 nM
same,TGI,A549 NSCLC,730 nM
same,GI50,COLO 205 colon,569 nM
same,TGI,COLO 205 colon,10200 nM
same,GI50,SK-MEL-5 melanoma,541 nM
same,TGI,SK-MEL-5 melanoma,2540 nM
same,GI50,OVCAR-3 ovarian,461 nM
same,TGI,OVCAR-3 ovarian,2850 nM
same,GI50,HL-60(TB) leukemia,152 nM
same,TGI,HL-60(TB) leukemia,1510 nM
same,GI50,M14 melanoma,322 nM
same,TGI,M14 melanoma,1090 nM
same,GI50,CCRF-CEM leukemia,93.3 nM
same,GI50,PC-3 prostate,97.2 nM
same,TGI,PC-3 prostate,339 nM
same,GI50,U251 CNS,130 nM
same,TGI,U251 CNS,586 nM
same,GI50,NCI-H226 lung,398 nM
same,TGI,NCI-H226 lung,2360 nM
same,GI50,NCI/ADR-RES ovarian,1750 nM
same,TGI,NCI/ADR-RES ovarian,6240 nM
same,GI50,TK-10 renal,106 nM
same,TGI,TK-10 renal,333 nM
same,GI50,MALME-3M melanoma,6360 nM
same,TGI,MALME-3M melanoma,13900 nM
same,GI50,NCI-H23 lung,454 nM
same,TGI,NCI-H23 lung,2260 nM
same,GI50,SN12C renal,175 nM
same,TGI,SN12C renal,572 nM
same,GI50,K-562 leukemia,115 nM
same,TGI,K-562 leukemia,2620 nM
same,GI50,UO-31 renal,185 nM
same,TGI,UO-31 renal,745 nM
same,GI50,HS 578T breast,11400 nM
same,TGI,HS 578T breast,> 34000 nM
same,GI50,A498 renal,10800 nM
same,TGI,A498 renal,18500 nM
same,GI50,T-47D breast,505 nM
same,GI50,EKVX NSCLC,185 nM
same,TGI,EKVX NSCLC,523 nM
same,GI50,SK-MEL-2 melanoma,912 nM
same,TGI,SK-MEL-2 melanoma,> 20800 nM
same,GI50,MDA-MB-435,289 nM
same,TGI,MDA-MB-435,2020 nM
same,GI50,RPMI-8226 leukemia,5 nM
same,TGI,RPMI-8226 leukemia,16.3 nM
same,GI50,SF-539 CNS,282 nM
same,TGI,SF-539 CNS,568 nM
same,GI50,CAKI-1 renal,128 nM
same,TGI,CAKI-1 renal,671 nM
same,GI50,SK-MEL-28 melanoma,9460 nM
same,TGI,SK-MEL-28 melanoma,> 50000 nM
same,GI50,SF-295 CNS,149 nM
same,TGI,SF-295 CNS,703 nM
same,GI50,ACHN renal,16.7 nM
same,TGI,ACHN renal,44.2 nM
same,GI50,UACC-62 melanoma,212 nM
same,TGI,UACC-62 melanoma,562 nM
same,GI50,SK-OV-3 ovarian,7810 nM
same,TGI,SK-OV-3 ovarian,20100 nM
same,GI50,786-0 renal,36.2 nM
same,TGI,786-0 renal,69 nM
same,GI50,SNB-75 CNS,2760 nM
same,TGI,SNB-75 CNS,> 50000 nM
same,GI50,SR leukemia,154 nM
same,TGI,SR leukemia,621 nM
same,GI50,MDA-MB-231 breast,124 nM
same,TGI,MDA-MB-231 breast,431 nM
same,GI50,MCF7 breast,94.2 nM
same,TGI,MCF7 breast,2480 nM
same,GI50,SF-268 CNS,434 nM
same,TGI,SF-268 CNS,1360 nM
same,GI50,KM12 colon,111 nM
same,TGI,KM12 colon,302 nM
same,GI50,RXF 393 renal,2090 nM
same,TGI,RXF 393 renal,11700 nM
same,GI50,UACC-257 melanoma,614 nM
same,TGI,UACC-257 melanoma,3360 nM
same,GI50,HOP-92 NSCLC,866 nM
same,TGI,HOP-92 NSCLC,5680 nM
